Drawing on patent US11401270B2, “Alcoxyamino derivatives for treating pain and pain related conditions” (ESTEVE PHARMACEUTICALS, S.A., priority 2017, dated 2022), this text covers Ki for 22 molecules.

Assay [1] deals with Human norepinephrine transporter (NET) (Homo sapiens (Human), UniProt P23975). Kind of assay: Binding Assay to Human Norepinephrine Transporter (NET). The note with it: Table 2, dual compounds; human NET enriched membranes, 5 nM [3H]-Nisoxetin; read-out: Ki(nM) NET Hum. Here is the method:
Binding Assay to Human Norepinephrine Transporter (NET).
Human norepinephrine transporter (NET) enriched membranes (5 μg) were incubated with 5 nM of radiolabeled [3H]-Nisoxetin in assay buffer containing 50 mM Tris-HCl, 120 mM NaCl, 5 mM KCl, pH 7.4.
NSB (non specific binding) was measured by adding 10 μM desipramine. The binding of the test compound was measured in five different concentrations. After 60 min incubation at 4° C., binding reaction was terminated by filtering through Multiscreen GF/C (Millipore) presoaked in 0.5% polyethyleneimine in Vacuum Manifold Station, followed by 3 washes with ice-cold filtration buffer containing 50 mM Tris-HCl, 0.9% NaCl, pH 7.4.
(§1) Filter plates were dried at 60° C. for 1 hour and 30 μl of scintillation cocktail were added to each well before radioactivity reading.

In assay [2] the target is Human α2δ-1 subunit of Cav2.2 calcium channel (Homo sapiens (Human), UniProt P54289). Kind of assay: Binding Assay to Human α2δ-1 Subunit of Cav2.2 Calcium Channel. The settings on record: human α2δ-1 enriched membranes, 15 nM [3H]-Gabapentin, read-out: Ki(nM) alpha2delta Hum. As for the experimental part: Binding Assay to Human α2δ-1 Subunit of Cav2.2 Calcium Channel.
Human α2δ-1 subunit of Cav2.2 calcium channel, sequence (P54289 25-1103): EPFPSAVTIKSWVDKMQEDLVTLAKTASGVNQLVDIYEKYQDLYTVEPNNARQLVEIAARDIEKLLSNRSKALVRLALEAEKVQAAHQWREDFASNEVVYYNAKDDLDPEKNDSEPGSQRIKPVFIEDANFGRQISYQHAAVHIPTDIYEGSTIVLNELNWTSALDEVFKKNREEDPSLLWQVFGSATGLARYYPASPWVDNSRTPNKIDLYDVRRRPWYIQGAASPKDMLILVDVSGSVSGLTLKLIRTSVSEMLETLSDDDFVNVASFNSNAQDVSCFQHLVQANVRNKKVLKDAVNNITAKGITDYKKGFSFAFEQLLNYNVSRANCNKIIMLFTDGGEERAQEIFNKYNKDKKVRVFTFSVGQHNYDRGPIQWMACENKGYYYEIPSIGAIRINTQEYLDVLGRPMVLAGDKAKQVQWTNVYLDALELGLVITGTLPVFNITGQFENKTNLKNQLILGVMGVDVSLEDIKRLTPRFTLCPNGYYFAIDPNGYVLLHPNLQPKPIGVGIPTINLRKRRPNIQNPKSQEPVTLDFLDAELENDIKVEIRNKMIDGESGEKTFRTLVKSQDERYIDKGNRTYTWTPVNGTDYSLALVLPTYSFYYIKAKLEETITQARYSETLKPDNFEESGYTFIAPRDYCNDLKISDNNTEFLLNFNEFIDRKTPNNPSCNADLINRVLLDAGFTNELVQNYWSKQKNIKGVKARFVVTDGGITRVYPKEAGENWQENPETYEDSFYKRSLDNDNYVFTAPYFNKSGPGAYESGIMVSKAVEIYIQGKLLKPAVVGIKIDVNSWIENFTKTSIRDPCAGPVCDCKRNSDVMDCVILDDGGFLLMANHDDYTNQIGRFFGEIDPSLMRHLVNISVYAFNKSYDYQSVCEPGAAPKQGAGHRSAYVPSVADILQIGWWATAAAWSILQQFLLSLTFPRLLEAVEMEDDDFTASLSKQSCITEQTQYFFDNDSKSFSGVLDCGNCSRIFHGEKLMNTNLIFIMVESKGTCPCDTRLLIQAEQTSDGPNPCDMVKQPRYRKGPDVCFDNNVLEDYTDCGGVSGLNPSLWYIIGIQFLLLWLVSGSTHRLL
NSB (non specific binding) was measured by adding 10 μM pregabalin. The binding of the test compound was measured in five different concentrations. After 60 min incubation at 27° C., binding reaction was terminated by filtering through Multiscreen GF/C (Millipore) presoaked in 0.5% polyethyleneimine in Vacuum Manifold Station, followed by 3 washes with ice-cold filtration buffer containing 50 mM Tris-HCl, pH 7.4.
as §1

Like-named read-outs stand apart in the source and are kept apart here. A value given as a limit tells only on which side of the number the result lay.

Human norepinephrine transporter (NET), sequence (P23975 whole entry): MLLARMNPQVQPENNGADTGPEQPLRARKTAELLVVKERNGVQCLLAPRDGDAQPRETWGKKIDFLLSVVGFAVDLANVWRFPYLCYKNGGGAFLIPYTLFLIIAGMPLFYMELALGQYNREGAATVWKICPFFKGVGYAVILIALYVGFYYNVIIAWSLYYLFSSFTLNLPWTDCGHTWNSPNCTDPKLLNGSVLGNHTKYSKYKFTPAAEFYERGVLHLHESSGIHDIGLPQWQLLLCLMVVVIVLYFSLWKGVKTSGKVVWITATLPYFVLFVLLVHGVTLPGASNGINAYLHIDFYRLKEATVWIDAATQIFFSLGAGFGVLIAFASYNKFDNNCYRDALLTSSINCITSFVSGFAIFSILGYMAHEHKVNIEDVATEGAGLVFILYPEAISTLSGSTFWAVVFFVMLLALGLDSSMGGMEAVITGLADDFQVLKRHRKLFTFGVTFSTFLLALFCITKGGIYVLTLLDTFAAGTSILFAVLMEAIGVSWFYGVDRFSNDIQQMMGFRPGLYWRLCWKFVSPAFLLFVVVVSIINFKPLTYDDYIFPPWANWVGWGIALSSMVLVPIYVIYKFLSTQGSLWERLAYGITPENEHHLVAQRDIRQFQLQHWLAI

Regarding `CNCCC(Oc1ccc(CN2CCN(C)c3ncccc3C2=O)cc1)c1ccc(F)cc1` (stereo not drawn) [Example 115, 4-(4-(1-(4-Fluorophenyl)-3-(methylamino)propoxy)benzyl)-1-methyl-1,2,3,4-tetrahydro-5H-pyrido[2,3-e][1,4]diazepin-5-one], the Ki was less than 100 nM in assay [1]; 500 to 3000 nM in assay [2] (Table 1); 500 to 3000 nM in assay [2] (Table 2, dual compounds).
Consider `CNCCC(Oc1ccc(CN2CCN(C)c3ncccc3C2=O)c(F)c1)c1ccccc1F` (stereo not drawn) [Example 129, 4-(2-Fluoro-4-(1-(2-fluorophenyl)-3-(methylamino)propoxy)benzyl)-1-methyl-1,2,3,4-tetrahydro-5H-pyrido[2,3-e][1,4]diazepin-5-one], for which the Ki was less than 100 nM in assay [1]; 100 to 500 nM in assay [2] (Table 1); 100 to 500 nM in assay [2] (Table 2, dual compounds).
For `CNCCC(Oc1cccc(N2CCN(C(C)C)CCC2=O)c1)c1cccs1` (stereo not drawn) [Example 60, 1-Isopropyl-4-(3-(3-(methylamino)-1-(thiophen-2-yl)propoxy)phenyl)-1,4-diazepan-5-one], the Ki in assay [1] was 500 to 1000 nM; in assay [2] (Table 1), 500 to 3000 nM; in assay [2] (Table 2, dual compounds), 500 to 3000 nM.
Consider `CNCCC(OCc1cccc(N2CCCN(C)CC2)c1)c1cccs1` (stereo not drawn) [Example 10, N-methyl-3-((3-(4-methyl-1,4-diazepan-1-yl)benzyl)oxy)-3-(thiophen-2-yl)propan-1-amine], for which the Ki fell in the range of 500 to 1000 nM in assay [1]; 500 to 3000 nM in assay [2] (Table 1); 500 to 3000 nM in assay [2] (Table 2, dual compounds).
On to `CNCC[C@H](Oc1ccc(CN2CCN(C)c3nc(OC)ccc3C2=O)cc1)c1cccs1` [Example 94, (S)-8-methoxy-1-methyl-4-(4-(3-(methylamino)-1-(thiophen-2-yl)propoxy)benzyl)-1,2,3,4-tetrahydro-5H-pyrido[2,3-e][1,4]diazepin-5-one], for which the Ki in assay [1] lay within 100 to 500 nM; in assay [2] (Table 1), 100 to 500 nM; in assay [2] (Table 2, dual compounds), 100 to 500 nM.
Take `CNCCC(OCc1cccc(N2CCNCCC2=O)c1)c1ccccc1` (stereo not drawn) [Example 37, 4-(3-((3-(Methylamino)-1-phenylpropoxy)methyl)phenyl)-1,4-diazepan-5-one]: the Ki is 100 to 500 nM in assay [1]; 500 to 3000 nM in assay [2] (Table 1); 500 to 3000 nM in assay [2] (Table 2, dual compounds).
With `CNCC[C@H](Oc1ccc(CN2CCCn3nc(C)cc3C2=O)c(F)c1)c1ccccc1` [Example 139, (S)-5-(2-fluoro-4-(3-(methylamino)-1-phenylpropoxy)benzyl)-2-methyl-5,6,7,8-tetrahydro-4H-pyrazolo[1,5-a][1,4]diazepin-4-one], the Ki in assay [1] was less than 100 nM; in assay [2] (Table 1) it was 100 to 500 nM; in assay [2] (Table 2, dual compounds), 100 to 500 nM.
In the case of `CNCC[C@H](Oc1ccc(CN2CCCn3nc(OC)cc3C2=O)c(F)c1)c1ccccc1` [Example 144, (S)-5-(2-fluoro-4-(3-(methylamino)-1-phenylpropoxy)benzyl)-2-methoxy-5,6,7,8-tetrahydro-4H-pyrazolo[1,5-a][1,4]diazepin-4-one], the Ki in assay [1] is less than 100 nM; in assay [2] (Table 1), 100 to 500 nM; in assay [2] (Table 2, dual compounds) it was 100 to 500 nM.
As for `CNCC[C@H](Oc1ccc(CN2CCN(C)c3nc(N)ccc3C2=O)c(F)c1)c1cccc(F)c1` [Example 153, (S)-8-amino-4-(2-fluoro-4-(1-(3-fluorophenyl)-3-(methylamino)propoxy)benzyl)-1-methyl-1,2,3,4-tetrahydro-5H-pyrido[2,3-e][1,4]diazepin-5-one], the Ki was less than 100 nM in assay [1]; less than 100 nM in assay [2] (Table 1); less than 100 nM in assay [2] (Table 2, dual compounds).
With `CNCC[C@H](Oc1ccc(CN2CCN(C)c3nc(C)ccc3C2=O)cc1)c1cccs1` [Example 91, (S)-1,8-dimethyl-4-(4-(3-(methylamino)-1-(thiophen-2-yl)propoxy)benzyl)-1,2,3,4-tetrahydro-5H-pyrido[2,3-e][1,4]diazepin-5-one], the Ki is 100 to 500 nM in assay [1]; 100 to 500 nM in assay [2] (Table 1); 100 to 500 nM in assay [2] (Table 2, dual compounds).
Turning to `CNCC[C@H](Oc1ccc(CN2CCN(C)c3nc(N)ccc3C2=O)cc1)c1cccs1` [Example 103, (S)-8-amino-1-methyl-4-(4-(3-(methylamino)-1-(thiophen-2-yl)propoxy)benzyl)-1,2,3,4-tetrahydro-5H-pyrido[2,3-e][1,4]diazepin-5-one], the Ki in assay [1] was less than 100 nM; in assay [2] (Table 1), less than 100 nM; in assay [2] (Table 2, dual compounds), less than 100 nM.
With `CNCCC(Oc1cccc(C(=O)N2CCCN(C)CC2)c1)c1ccccc1` (stereo not drawn) [Example 3, (4-Methyl-1,4-diazepan-1-yl)(3-(3-(methylamino)-1-phenylpropoxy)phenyl)methanone], the Ki fell in the range of 100 to 500 nM in assay [1]; 500 to 3000 nM in assay [2] (Table 1); 500 to 3000 nM in assay [2] (Table 2, dual compounds).
In the case of `CNCCC(Oc1ccc(CN2CCN(C)c3nc(C)ccc3C2=O)cc1)c1cccs1` (stereo not drawn) [Example 100, 1,8-Dimethyl-4-(4-(3-(methylamino)-1-(thiophen-2-yl)propoxy)benzyl)~ 1,2,3,4-tetrahydro-5H-pyrido[2,3-e][1,4]diazepin-5-one], the Ki is 500 to 1000 nM in assay [1]; 100 to 500 nM in assay [2] (Table 1); 100 to 500 nM in assay [2] (Table 2, dual compounds).
In the case of `CN1CCN(c2cccc(COC(CCNCCF)c3ccccc3)c2)C(=O)c2ccccc21` (stereo not drawn) [Example 44, 4-(3-((3-((2-Fluoroethyl)amino)-1-phenylpropoxy)methyl)phenyl)-1-methyl-1,2,3,4-tetrahydro-5H-benzo[e][1,4]diazepin-5-one], the Ki in assay [2] (Table 1) was 500 to 3000 nM.
Still for that read-out and setting: under `CNCC[C@H](Oc1ccc(CN2CCN(C)c3c(ccnc3OC)C2=O)c(F)c1)c1ccccc1` [Example 146, (S)-4-(2-fluoro-4-(3-(methylamino)-1-phenylpropoxy)benzyl)-9-methoxy-1-methyl-1,2,3,4-tetrahydro-5H-pyrido[3,4-e][1,4]diazepin-5-one] stands more than 3000 nM.
Same read-out and setting: under `CNCC[C@H](OCc1cccc(N2CCN(C)c3ccccc3C2=O)c1)c1cccs1` [Example 15, (S)-1-methyl-4-(3-((3-(methylamino)-1-(thiophen-2-yl)propoxy)methyl)phenyl)-1,2,3,4-tetrahydro-5H-benzo[e][1,4]diazepin-5-one] stands more than 3000 nM.
On the same count and under the same terms, for `CNCCC(OCc1cccc(N2CCCCCC2=O)c1)c1cccs1` (stereo not drawn) [Example 16, 1-(3-((3-(Methylamino)-1-(thiophen-2-yl)propoxy)methyl)phenyl)azepan-2-one] the value was 500 to 3000 nM; for `CNCCC(Oc1cccc(CN2CCN(C)c3ccccc3C2=O)c1)c1cccs1` (stereo not drawn) [Example 106, 1-Methyl-4-(3-(3-(methylamino)-1-(thiophen-yl)propoxy)benzyl)-1,2,3,4-tetrahydro-5H-benzo[e][1,4]diazepin-5-one], 500 to 3000 nM.
In the case of `CCN[C@@H]1CCCCN(c2cccc(O[C@@H](CCNC)c3cccs3)c2)C1=O` [Example 18, (R)-3-(ethylamino)-1-(3-((S)-3-(methylamino)-1-(thiophen-2-yl)propoxy)phenyl)azepan-2-one], in assay [2] (Table 1), the Ki fell in the range of 500 to 3000 nM.
Same read-out and setting: for `CNCCC(Oc1cccc(N2CCCCCC2=O)c1)c1cccs1` (stereo not drawn) [Example 17, 1-(3-(3-(Methylamino)-1-(thiophen-2-yl)propoxy)phenyl)azepan-2-one] the value was more than 3000 nM; for `CNCCC(Oc1cccc(N2CCN(C)CCC2=O)c1)c1ccccc1` (stereo not drawn) [Example 32, 1-Methyl-4-(3-(3-(methylamino)-1-phenylpropoxy)phenyl)-1,4-diazepan-5-one], more than 3000 nM.
Same read-out and setting: for `CCNCC(=O)N1CCCN(c2cccc(OC(CCNC)c3cccs3)c2)CC1` (stereo not drawn) [Example 11, 2-(Ethylamino)-1-(4-(3-(3-(methylamino)-1-(thiophen-2-yl)propoxy)phenyl)-1,4-diazepan-1-yl)ethan-1-one] the value was 500 to 3000 nM.
